Like-named read-outs stand apart in the source and are kept apart here.
Tests used:
IL-1β mRNA expression = test: Inhibition of IL-1β mRNA expression in LPS-treated HaCaT cells (real-time PCR); format: cell-based, Human; conditions: 10 μM compound pretreatment then LPS, LPS alone set to 100%
Method: (§1) Human keratinocytes HaCaT or alpha mouse liver 12 (AML-12) cells were obtained from Cell Lines Service GmbH (Eppelheim, Germany). The cells were cultured in Dulbecco's modified Eagle's medium (DMEM, HyClone) supplemented with 10% fetal bovine serum (HyClone) (HaCaT cells) and 1% penicillin/streptomycin (HyClone) and maintained at 37° C. in a humidified atmosphere containing 5% CO2. AML-12 cells were pretreated with compounds at a concentration of 10 μM 1 hour before LPS treatment and then treated with LPS (100 ng/mL) for 24 hours.
(§2) Total RNA was isolated from tissues using TRIzol reagent (Invitrogen), and reverse transcription (RT) and real-time PCR analysis were performed using the ABI PRISM 7700 system (PE Biosystems). Data were normalized to the amount of GAPDH mRNA.
(§3) 13 novel synthetic compounds (Compounds 5a to 5m) and 3 synthetic intermediates (Compounds 4d, 4e, and 41) were screened by measuring the mRNA expression levels of IL-6 and IL-1β. Human keratinocyte HaCaT cell lines were used to evaluate the mRNA expression inhibition effect. […] Each compound was administered at a concentration of 10 μM.

IL-6 mRNA expression = test: Inhibition of IL-6 mRNA expression in LPS-treated HaCaT cells (real-time PCR); format: cell-based, Human; conditions: for mRNA Expression (%) (10 μM) IL-6: HaCaT cells, 10 μM compound pretreatment then LPS, LPS alone set to 100%; for IC50: Homo sapiens, HaCaT
Method: as §1, §2, §3
Dose-response studies were performed for the above five compounds at different concentrations to obtain IC50 values (μM) (FIG. 1 and Table 3).

pY-STAT3 = test: Western blotting of pY-STAT3 in LPS-treated AML-12 cells; format: cell-based, mouse; conditions: 10 μM compound, FIG. 2
Method: as §1
(§4) Protein levels in cells and mouse tissues were determined by immunoblot analysis. […] After quantifying the protein concentrations in the lysates (supernatant) using the Bradford assay (Bio-Rad, CA, USA), the lysates were mixed with a sample buffer (62.5 mM Tris-HCl pH 6.8, 10% glycerol, 2% sodium dodecyl sulfate, 0.0125% bromophenol blue, 2.5% β-mercaptoethanol) and heated at 95° C. for 5 minutes. […] Immune complexes were detected with horseradish peroxidase (HRP)-conjugated secondary antibodies (Bio-Rad, Hercules, CA, USA) and enhanced with chemiluminescence reagents (Ab Frontier, Daejeon, Korea) using IQ800 (GE Healthcare, Sweden). The abundance of the target protein was quantified by densitometric analysis of the immunoblot. […]

IL-6 mRNA = IL-6 mRNA level in liver tissue of LPS-injected mice; format: in vivo, mice (C57BL/6J); conditions: 10 mg/kg in olive oil 1 hour before LPS (1 mg/kg i.p., 6 h)
Method: (§5) 10-week-old male C57BL/6J mice (Jackson Laboratory, Bar Harbor, ME, USA) were used in the experiment. All animal experiments were performed in accordance with the protocol approved by the Institutional Animal Care and Use Committee of Ewha Womans University (EWHA IACUC 19-001). The mice were housed in a temperature-controlled room (20 to 22° C. with a 12 h light:12 h dark cycle). The compounds prepared according to Examples 1 to 10 were diluted with olive oil (vehicle, Sigma) to a volume of 200 μL (10 mg/kg) and administered to mice (male C57BL/6J, […]) 1 hour before LPS administration. LPS (1 mg/kg, 6 h) was resuspended in saline and injected intraperitoneally at a dose of 1 mg/kg of body weight. At the end of the experiment, the mice were sacrificed (tribromoethanol, 250 mg/kg, i.p.) and the liver and blood were collected for further analysis.
as §2
(§6) 2 compounds (Compounds 4d and 5f) were selected for in vivo assay. […] In order to evaluate the anti-inflammatory activity in mice, the mRNA expressions of IL-1β, IL-6, and TNF-α were measured, and the results are shown in FIG. 3.

p-NF-κB p65 = test: Western blotting of p-NF-κB p65 in LPS-treated AML-12 cells; format: cell-based, mouse; conditions: 10 μM compound, FIG. 2
Method: as §1, §4

p-IκBα = test: Western blotting of p-IκBα in LPS-treated AML-12 cells; format: cell-based, mouse; conditions: 10 μM compound, FIG. 2
Method: as §1, §4

[1] = test system: LPS-induced liver inflammatory disease model; test: Liver histology (H&E) and F4/80 immunohistochemistry in LPS-induced liver inflammatory disease model; format: in vivo, mice (C57BL/6J); conditions: mice, compared to LPS alone; for F4/80-positive cells in liver: immunohistochemistry
Method: as §5
First, 4% paraformaldehyde-fixed liver tissues were embedded in paraffin according to standard procedures. 4-micron-thick liver tissue sections were prepared, and immunohistochemical staining was performed according to the manufacturer's instructions. 4-micron-thick liver tissue sections were stained with hematoxylin and eosin (H&E) or subjected to immunohistochemical characterization using an antibody specific for F4/80 (Abcam, Cambridge, MA, UK). All steps were performed at room temperature, and the tissues were washed with tap water after each step. The sections were photographed using a Zeiss microscope (Carl Ziess, Thronwood, NY, USA) equipped with AxioCam software.
As a result of LPS administration, macrophage infiltration into the liver tissue was observed. When Compounds 5f and 4d were administered, the inflammatory response was improved compared to when LPS was administered alone.
In order to characterize the phenotype of macrophages accumulated in LPS-induced inflammation, immunohistochemical studies were performed using antibodies against F4/80 as a marker of mature macrophages (FIG. 4b). When LPS was administered alone to induce an inflammatory response, hepatic macrophage accumulation increased. As a result, there was a marked elevation of the number of F4/80-positive cells.

[2] = Plasma ALT and AST levels in LPS-injected mice; format: in vivo, mice (C57BL/6J); conditions: for plasma alanine aminotransferase (ALT) level / plasma aspartate transaminase (AST) level: compared to LPS alone; for hepatotoxicity in vivo: judged by ALT and AST levels
Method: as §5
The concentrations of plasma alanine aminotransferase (ALT) and aspartate transaminase (AST) were determined using an EnzyChrom™ assay kit (BioAssay Systems, Hayward, CA, USA) according to the manufacturer's recommendations.
Consistent with the altered histological characteristics, plasma alanine aminotransferase (ALT) and aspartate transaminase (AST) levels increased after LPS administration (FIGS. 4c and 4d), and when Compounds 5f and 4d were administered, ALT and AST levels decreased.

IL-1β mRNA = IL-1β mRNA level in liver tissue of LPS-injected mice; format: in vivo, mice (C57BL/6J); conditions: 10 mg/kg in olive oil 1 hour before LPS (1 mg/kg i.p., 6 h)
Method: as §5, §2, §6

TNF-α mRNA = TNF-α mRNA level in liver tissue of LPS-injected mice; format: in vivo, mice (C57BL/6J); conditions: 10 mg/kg in olive oil 1 hour before LPS (1 mg/kg i.p., 6 h)
Method: as §5, §2, §6

[3] = dose-response of normalized IL-6 mRNA expression (FIG. 1), read-out: IC50
[4] = log of IC50, dose-response of normalized IL-6 mRNA expression (FIG. 1), read-out: Log (converted)

SMILES | mRNA Expression (%) (10 μM) IL-1β (IL-1β mRNA expression) | mRNA Expression (%) (10 μM) IL-6 (IL-6 mRNA expression) | IC50 (IL-6 mRNA expression; [3]) [nM] | IC50 (IL-6 mRNA expression; [4]) [nM] | expression level of pY-STAT3 (pY-STAT3) | mRNA level of IL-6 in vivo (IL-6 mRNA) | expression level of p-NF-κB p65 (p-NF-κB p65) | expression level of p-IκBα (p-IκBα) | inflammatory response in liver histology (H&E) [1] | F4/80-positive cells in liver [1] | plasma alanine aminotransferase (ALT) level [2] | plasma aspartate transaminase (AST) level [2] | hepatotoxicity in vivo [2] | mRNA level of IL-1β in vivo (IL-1β mRNA) | mRNA level of TNF-α in vivo (TNF-α mRNA)
COc1cc(NC(=O)CCCN)ccc1Nc1nc2cc(C(C)(C)C)ccc2o1 [Compound 5m, 4-amino-N-(4-(5-tert-butylbenzo[d]oxazol-2-ylamino)-3-methoxyphenyl)butanamide] | 0.49 | 4.07 | 0.199 | 0.2 | – | – | – | – | – | – | – | – | – | – | –
Cc1ccc2oc(Nc3ccc(NC(=O)CCCNC(=O)OC(C)(C)C)cc3)nc2c1 [Compound 4d, tert-butyl 4-(4-(5-methylbenzo[d]oxazol-2-ylamino)phenylamino)-4-oxobutylcarbamate] | 0.03 | 2.4 | 0.0604 | 0.0603 | significantly down-regulated | significantly reduced | significantly down-regulated | significantly down-regulated | improved | significant decrease | decreased | decreased | without hepatotoxicity | significantly reduced | significantly reduced
CC(C)(C)c1ccc2oc(Nc3ccc(NC(=O)CCCN)cc3)nc2c1 [Compound 5f, 4-amino-N-(4-(5-tert-butylbenzo[d]oxazol-2-ylamino)phenyl)butanamide] | 2.83 | 3.26 | 0.444 | 0.447 | significantly down-regulated | significantly reduced | significantly down-regulated | significantly down-regulated | improved | significant decrease | decreased | decreased | without hepatotoxicity | significantly reduced | significantly reduced
Cc1cccc2oc(Nc3ccc(NC(=O)CCCN)cc3)nc12 [Compound 5c, 4-amino-N-(4-(4-methylbenzo[d]oxazol-2-ylamino)phenyl)butanamide] | 0.79 | 2.08 | 1640 | 1660 | – | – | – | – | – | – | – | – | – | – | –
Cc1ccc2oc(Nc3ccc(NC(=O)CCCN)cc3)nc2c1 [Compound 5d, 4-amino-N-(4-(5-methylbenzo[d]oxazol-2-ylamino)phenyl)butanamide] | 0.03 | 3.39 | 32.7 | 33.1 | – | – | – | – | – | – | – | – | – | – | –

Reference: US20260092043A1, “NOVEL BENZOXAZOLE DERIVATIVE COMPRISING 4-AMINO-BUTANAMIDE AND USE THEREOF” (EWHA UNIVERSITY - INDUSTRY COLLABORATION FOUNDATION, priority 2022, published 2026)
